Results reported in ChEMBL document CHEMBL4229572, “VU6007477, a Novel M1 PAM Based on a Pyrrolo[2,3-b]pyridine Carboxamide Core Devoid of Cholinergic Adverse Events” (ACS Med Chem Lett, 2018).
Positions count from the first letter of the chain named. pEC50: −log10 of the molar value. Active and inactive are the calls of the source. No cut-off for these calls is given here.

How the values were obtained:
[1] = target: T1, Muscarinic acetylcholine receptor M1 (Rattus norvegicus) (UniProt P08482); assay: (§1) Positive allosteric modulation of rat M1 receptor expressed in CHO cells assessed as increase in acetylcholine-induced calcium mobilization pretreated for 2.5 mins followed by acetylcholine addition and measured after 1 min by Fluo-4-AM dye based assay; format: functional, cell-based
T1 sequence (whole entry): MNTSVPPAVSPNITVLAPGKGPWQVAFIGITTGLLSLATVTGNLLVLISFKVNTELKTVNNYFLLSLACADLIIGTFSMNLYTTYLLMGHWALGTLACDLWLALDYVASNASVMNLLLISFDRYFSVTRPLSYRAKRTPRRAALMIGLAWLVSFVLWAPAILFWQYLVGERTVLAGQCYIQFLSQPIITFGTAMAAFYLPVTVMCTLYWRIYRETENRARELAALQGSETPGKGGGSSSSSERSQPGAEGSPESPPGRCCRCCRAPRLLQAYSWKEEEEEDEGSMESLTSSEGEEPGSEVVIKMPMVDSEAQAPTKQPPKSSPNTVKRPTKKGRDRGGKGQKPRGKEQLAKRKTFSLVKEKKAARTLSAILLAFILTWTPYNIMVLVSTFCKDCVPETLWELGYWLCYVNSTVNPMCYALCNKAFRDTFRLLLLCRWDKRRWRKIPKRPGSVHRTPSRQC

[2] = target: T2, Muscarinic acetylcholine receptor M1 (Rattus norvegicus, UniProt P08482); assay: as §1; format: functional, cell-based; conditions: for pEC50: read-out: EC50
T2 sequence (P08482 whole entry): T1 sequence (whole entry)

[3] = target: T2, Muscarinic acetylcholine receptor M1; assay: (§2) Agonist activity at rat M1 receptor expressed in CHO cells assessed as increase in calcium mobilization measured after 2.5 mins by Fluo-4-AM dye based assay; format: functional, cell-based; conditions: for pEC50: read-out: EC50; for EC50: read-out: pEC50 (converted)
[4] = Total brain to plasma partition coefficient, Kp in cannulated Sprague-Dawley rat at 0.2 mg/kg, iv administered via jugular vein as cassette dose measured after 0.25 hrs by LC-MS/MS analysis; format: ADME, organism-based; conditions: for Kp at 0.25 h: Sprague-Dawley, brain and plasma; for Kp: brain, 0.25 h, BLD = below limit of detection
[5] = Ratio of unbound brain to plasma concentration in cannulated Sprague-Dawley rat at 0.2 mg/kg, iv administered via jugular vein as cassette dose measured after 0.25 hrs by LC-MS/MS analysis; format: ADME, organism-based; conditions: for Kp uu at 0.25 h: Sprague-Dawley, brain and plasma, read-out: K(p,uu,brain); for K(p,uu,brain): 0.25 h, BLD = below limit of detection
[6] = Protein binding in rat brain assessed as unbound fraction; format: ADME, tissue-based
[7] = Total brain to plasma partition coefficient, Kp in C57BL/6J mouse at 100 mg/kg, ip after 1 hr by LC-MS/MS analysis; format: ADME, organism-based; conditions: brain and plasma
Mus musculus = assay: Cholinergic toxicity in C57BL/6J mouse assessed as induction of seizure activity at 100 mg/kg, ip measured within 30 mins; format: organism-based; conditions: in vivo, 0.5 h
[8] = Protein binding in rat plasma assessed as unbound fraction at 5 uL measured after 4 hrs by LC-MS/MS based equilibrium dialysis method; format: ADME, cell-free
[9] = target: T3, Muscarinic acetylcholine receptor M1 (Homo sapiens, UniProt P11229); assay: (§3) Positive allosteric modulation of human M1 receptor expressed in CHO cells assessed as increase in acetylcholine-induced calcium mobilization pretreated for 2.5 mins followed by acetylcholine addition and measured after 1 min by Fluo-4-AM dye based assay; format: functional, cell-based
T3 sequence (P11229 whole entry): T1 sequence (whole entry) with V5A, S254T, S309P, K320R, G337A, V413I

[10] = target: T4, Muscarinic acetylcholine receptor M1 (Homo sapiens) (UniProt P11229); assay: as §3; format: functional, cell-based
T4 sequence (whole entry): T1 sequence (whole entry) with V5A, S254T, S309P, K320R, G337A, V413I

[11] = target: T3, Muscarinic acetylcholine receptor M1; assay: Agonist activity at human M1 receptor expressed in CHO cells assessed as increase in calcium mobilization measured after 2.5 mins by Fluo-4-AM dye based assay; format: functional, cell-based
[12] = Ratio of unbound brain to plasma concentration in C57BL/6J mouse at 100 mg/kg, ip after 1 hr by LC-MS/MS analysis; format: ADME, organism-based; conditions: brain and plasma, read-out: K(p,uu,brain)
[13] = Protein binding in human plasma assessed as unbound fraction at 5 uL measured after 4 hrs by LC-MS/MS based equilibrium dialysis method; format: ADME, cell-free
[14] = target: T1, Muscarinic acetylcholine receptor M1 (Rattus norvegicus); assay: as §2; format: functional, cell-based

Row | %max [1] [%] | pEC50 [2] | EC50 [3] [nM] | %max [14] [%] | pEC50 [3] | SMILES | further results
1 | 87 | 7.40 | – | 65 | 5.65 | Cn1ccc(-c2ccc(Cc3cc(C(=O)N[C@@H]4CCOC[C@H]4O)nc4c3ccn4C)cc2)n1 | Kp at 0.25 h [4]: 0.11; Kp uu at 0.25 h [5]: 0.05; fraction unbound [6]: 0.01; Kp at 1 h [7]: 0.09; Activity (Mus musculus): Toxic; fraction unbound at 4 h, 5 uL [8]: 0.03; pEC50 [9]: 7.22; %max [10]: 83%; pEC50 [11]: 7.22; Kp uu at 1 h [12]: 0.04; fraction unbound at 4 h, 5 uL [13]: 0.02
2 | 89 | 6.25 | – | – | < 5.00 | Cn1ccc(-c2ccc(Cc3cc(C(=O)NC4CCOCC4)nc4c3ccn4C)cc2)n1 | Kp [4]: Bld; K(p,uu,brain) [5]: Bld; fraction unbound [6]: 0.01; fraction unbound at 4 h, 5 uL [8]: 0.04; pEC50 [9]: 6.18; %max [10]: 87%; pEC50 [11]: 6.18; fraction unbound at 4 h, 5 uL [13]: 0.02
3 | 86 | 6.12 | > 31600 | – | < 4.52 | Cn1ccc2c(Cc3ccc(-c4cscn4)cc3)cc(C(=O)NC3CCOCC3)nc21 | –
4 | 91 | 6.22 | – | – | < 5.00 | Cn1ccc(-c2ccc(Cc3cc(C(=O)NC4CC5(COC5)C4)nc4c3ccn4C)cc2)n1 | –
5 | 78 | 5.76 | > 31600 | – | < 4.52 | Cn1ccc2c(Cc3ccc(-c4nccs4)cc3)cc(C(=O)NC3CCOCC3)nc21 | –
6 | 90 | 6.12 | > 10000 | 34 | – | Cn1ccc(-c2ccc(Cc3cc(C(=O)NC4CCOCC4)nc4c3ccn4C)cn2)n1 | pEC50 ([3]; cho): < 5.00
7 | 87 | 6.74 | – | 41 | 5.49 | Cn1ccc(-c2ccc(Cc3cc(C(=O)N[C@@H]4CCCC[C@H]4O)nc4c3ccn4C)cc2)n1 | pEC50 [9]: 6.74; %max [10]: 84%; pEC50 [11]: 6.74
8 | 88 | 6.12 | > 10000 | – | – | Cc1nc(-c2ccc(Cc3cc(C(=O)NC4CCOCC4)nc4c3ccn4C)cc2)co1 | pEC50 ([3]; cho): < 5.00

The remaining lines, values behind:

Row | SMILES | %max [1] [%] | pEC50 [2] | EC50 [3] [nM] | %max [14] [%] | pEC50 [3] | further results
9 | Cn1ccc(-c2ccc(Cc3cc(C(=O)N[C@@H]4CCC[C@H]4O)nc4c3ccn4C)cn2)n1 | 86 | 6.59 | > 10000 | – | – | pEC50 ([3]; cho): < 5.00
10 | Cn1cc(-c2ccc(Cc3cc(C(=O)N[C@@H]4CCCC[C@H]4O)nc4c3ccn4C)cn2)cn1 | 89 | 7.40 | – | 58 | 5.92 | Kp [4]: Bld; K(p,uu,brain) [5]: Bld; fraction unbound [6]: 0.07; Kp at 1 h [7]: 0.03; Activity (Mus musculus): Toxic; fraction unbound at 4 h, 5 uL [8]: 0.06; Kp uu at 1 h [12]: 0.04; fraction unbound at 4 h, 5 uL [13]: 0.04
11 | Cn1ccc2c(Cc3ccc(-c4nccs4)cc3)cc(C(=O)N[C@@H]3CCOC[C@H]3O)nc21 | 90 | 7.00 | – | 41 | 5.25 | Kp at 0.25 h [4]: 0.21; Kp uu at 0.25 h [5]: 0.13; fraction unbound [6]: 0.01; Activity (Mus musculus): Toxic; fraction unbound at 4 h, 5 uL [8]: 0.02; pEC50 [9]: 7.05; %max [10]: 80%; pEC50 [11]: 7.05; fraction unbound at 4 h, 5 uL [13]: 0.02
12 | O=C(N[C@H]1CCCC[C@@H]1O)C1CN(Cc2ccc(-n3cccn3)cc2)c2ccccc2O1 (some centres undefined) | – | – | – | – | – | Activity [1]: inactive
13 | Cn1ccc(-c2ccc(Cc3cc(C(=O)NC4CC5(COC5)C4)nc4c3ccn4C)cn2)n1 | 89 | 6.24 | > 31600 | – | < 4.52 | –
14 | Cn1cc(-c2ccc(Cn3cc(C(=O)N[C@H]4CCCC[C@@H]4O)c4c(F)cc(F)cc43)cn2)cn1 | – | – | – | – | – | Activity [1]: inactive
15 | Cn1ccc2c(Cc3ccc(-n4cccn4)cc3)cc(C(=O)NC3CCOCC3)nc21 | 87 | 6.31 | > 10000 | 26 | – | pEC50 ([3]; cho): < 5.00
16 | Cn1ccc(-c2ccc(Cc3cc(C(=O)NC[C@@H]4CCCO4)nc4c3ccn4C)cn2)n1 | 84 | 6.31 | > 10000 | – | – | pEC50 ([3]; cho): < 5.00
17 | Cn1ccc(-c2ccc(Cc3cc(C(=O)NC4CCOC(C)(C)C4)nc4c3ccn4C)cn2)n1 (centres undefined) | 94 | 6.26 | > 10000 | – | – | pEC50 ([3]; cho): < 5.00
18 | Cn1ccc(-c2ccc(Cc3cc(C(=O)N[C@@H]4CCCC[C@H]4O)nc4c3ccn4C)cn2)n1 | 87 | 7.00 to 7.05 | – | 53 | 5.64 | Kp [4]: Bld; K(p,uu,brain) [5]: Bld; EC50 ([2]; read-out: pEC50 (converted)): 95.5 nM; fraction unbound [6]: 0.04; Kp at 1 h [7]: 0.28; Activity (Mus musculus): Toxic; fraction unbound at 4 h, 5 uL [8]: 0.03; pEC50 [9]: 6.92; %max [10]: 79%; pEC50 [11]: 6.91; Kp uu at 1 h [12]: 0.17; fraction unbound at 4 h, 5 uL [13]: 0.12
19 | Cn1ccc(-c2ccc(Cc3cc(C(=O)N[C@@H]4CCOC[C@H]4O)nc4c3ccn4C)cn2)n1 | 86 | 7.85 | – | 67 | 6.24 | –
20 | Cn1ccc2c(Cc3ccc(-c4nccs4)cc3)cc(C(=O)N[C@@H]3CCCC[C@H]3O)nc21 | 91 | 6.44 | > 31600 | – | < 4.52 | –
21 | Cn1ccc(-c2ccc(Cc3cc(C(=O)NCC4CCOCC4)nc4c3ccn4C)cn2)n1 | 87 | 5.80 | > 31600 | – | < 4.52 | –
